Results on 14 compounds are retold here after patent US9796700B2 (Celgene CAR LLC, priority 2013, dated 2017).

Like-named read-outs stand apart in the source and are kept apart here.

Experiment [1] concerns HT-29 cells. The experiment is described as follows: Measurement of inhibition of cancer cell proliferation (CellTiterGlo). Format: cell-based. To be noted: Homo sapiens, 72 hours. Here is the method: Measurement of Inhibition of Cancer Cell Proliferation
HT-29 cells were split and 3000 cells in 100 μl of growth medium were added per well of a flat-bottom 96-well plate. A two-fold test compound solution in serum-free RPM1640 was made, starting at 5,000 nM. Then, 3-fold serial dilutions were made across the plate from well 1 to well 11. Well 12, the last well in a row on the plate, was left as untreated control. 100 μl compound solutions were then transferred to the wells, so the total volume of media was 200 μl per well. Plates were returned to a 37° C. incubator, and the cells were cultured for 72 hours. To measure cell proliferation after 72 hours, media was discarded from the plates, 50 μl/well of fresh medium was added, and 50 μl CellTiterGlo solution was added (Promega Cat#G7573). The plate was covered with a dark lid and incubated for 10 min. A sealing tape was applied to the bottom of the plate, and the plate was read in a luminescence plate reader. […] A 2-fold serial dilution was used to generate 8 cell densities from 50,000-390 cells per well in 50 μl media. 50 μl CellTiterGlo was added per well, and the plate was read in a luminescence plate reader after 10 min. The reading was plotted vs. cell number to generate a standard curve and the equation of the curve fit. The compound-treated sample luminescence readings were converted to cell numbers using the equation. The percent of inhibition, using untreated control as 100% growth, was then calculated. GI50 was then calculated by GraphPad Prism.

In experiment [2] the test system is ERK1 phosphorylation of its substrate RSK in HT29 cells. In words: pRSK MSD Assay in HT29 cells. The experiment is classed as cell-based. Conditions: Homo sapiens. Here is the method: The protocol below describes an assay to measure the kinase activity of ERK1 to phosphorylate its substrate, RSK, in the presence of a test compound. This experiment was conducted using a Mesoscale Discovery plate. The day before the assay, HT29 cells were split and plated at 50,000 cells/well in complete growth media. After allowing cells to adhere, the media was removed and replaced with media containing 0.1% FBS and incubated overnight. Blank MDS plates were coated with 25 μl/well RSK capture antibody and incubated at 4° C. overnight. The next day, the media was removed and replaced with 100 μl of media containing a test compound and incubated for 120 minutes at 37° C. The media was removed and replaced with 55 μl of well lysis buffer with protease and phosphatase inhibitors provided in the kit, followed by incubation at 4° C. for 30 minutes. 50 μl of lysate was transferred to a blocked MSD plate, followed by incubation at room temperature for 2 hours under constant shaking. The plate was washed 3 times with MSD wash buffer (cat#R617TX), and 25 μl/well phospho-RSK (pRSK) detection antibody was added with an appropriate Sulfo-tagged anti-species detection antibody diluted in 1% BSA in MSD wash buffer. This mixture was incubated for 1 hour at room temperature under constant shaking. The plate was washed 3 times, and 150 μl 1×MSD read buffer was added, followed by signal detection in an MSD plate reader.

Experiment [3] addresses Erk1 (Homo sapiens (Human), UniProt P27361). The experiment is described as follows: Protein Mass Modification Assay (intact protein MALDI). Format: binding. Put shortly:
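Human Erk1 was incubated 60 min at room temperature with a 10-fold molar excess of compound, then analysed as intact protein by MALDI with sinapinic acid matrix. The centroid mass shift versus untreated protein was divided by compound molecular weight to give percent modified protein.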

In experiment [4] the target is MEK1 activated ERK1 (Homo sapiens (Human), UniProt P27361). In words: Omnia continuous-read kinase assay for potency against MEK1 activated ERK1. The experiment is classed as biochemical. Conditions: MEK1 activated ERK1, WT, ATP at KM. Summed up:
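Apparent IC50 came from initial reaction slopes (RFU vs time) plotted against log inhibitor with a variable-slope fit. Reactions were started with ERK1 (4 nM final) added to 50 μM ATP, roughly at its appKM, and 10 μM Sox-conjugated ST17 peptide in 20 mM Tris pH 7.5, 5 mM MgCl2. Fluorescence was monitored every 71 seconds.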

The mark [5] stands for this setting: HT-29, read-out: ERK1 PRSK MSD HT29 EC50 (nM).
Setting [6] is: HT-29, HT29 cells, read-out: ERK1 PRSK MSD HT29 EC50.

Chain of Erk1 (P27361 whole entry, looked up): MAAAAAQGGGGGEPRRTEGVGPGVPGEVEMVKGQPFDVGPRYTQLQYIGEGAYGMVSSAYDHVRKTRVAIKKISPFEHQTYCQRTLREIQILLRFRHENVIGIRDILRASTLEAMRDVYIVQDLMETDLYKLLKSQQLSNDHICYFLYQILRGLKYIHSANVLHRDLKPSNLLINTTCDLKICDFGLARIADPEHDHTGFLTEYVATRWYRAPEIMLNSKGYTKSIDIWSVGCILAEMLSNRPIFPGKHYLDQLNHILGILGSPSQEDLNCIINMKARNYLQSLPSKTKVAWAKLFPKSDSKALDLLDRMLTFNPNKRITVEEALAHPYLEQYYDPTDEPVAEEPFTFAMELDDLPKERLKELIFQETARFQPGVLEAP
Chain of MEK1 activated ERK1 (P27361 whole entry): as the sequence (P27361 whole entry, looked up) above

In experiment [1], `C=CC(=O)Nc1cc(F)ccc1Nc1nc(N[C@H]2CC[C@@H](F)CC2)ncc1C(F)(F)F` [Compound I-8, N-(5-fluoro-2-((2-((cis-4-fluorocyclohexyl)amino)-5-(trifluoromethyl)pyrimidin-4-yl)amino)phenyl)acrylamide] yielded a GI50 of 501 to 999 nM. Moreover, the EC50 in experiment [2] (setting [5]) was below 100 nM. In addition, the “ERK1 Mass Mod (%)” value in experiment [3] is on record as “E (key: E: provided a mass modification of ≧70%; F: provided a mass modification of 31-69%; G: proived a mass modification ≦30%)”.
For `C=CC(=O)Nc1cc(C)ccc1Nc1nc(N[C@H]2CCCN(C(=O)CF)C2)ncc1C(F)(F)F` [Compound I-43, (S)—N-(2-((2-((1-(2-Fluoroacetyl)piperidin-3-yl)amino)-5-(trifluoromethyl)pyrimidin-4-yl)amino)-5-methylphenyl)acrylamide], in experiment [1], the GI50 is below 100 nM. Moreover, the EC50 in experiment [2] (setting [6]) is 101 to 500 nM. Also, the “ERK1 Mass Mod (%)” value in experiment [3] is recorded as “E (provided a mass modification of ≧70%)”. In experiment [4], the IC50 is below 100 nM.
`C=CC(=O)Nc1ccccc1Nc1nc(Nc2ccc(N3CCN(C(C)=O)CC3)cc2OC)ncc1C(F)(F)F` [Compound I-66, N-(2-((2-((4-(4-Acetylpiperazin-1-yl)-2-methoxyphenyl)amino)-5-(trifluoromethyl)pyrimidin-4-yl)amino)phenyl)acrylamide] showed a GI50 in experiment [1] of 101 to 500 nM. The “ERK1 Mass Mod (%)” value in experiment [3] is recorded as “E (key: E: provided a mass modification of ≧70%; F: provided a mass modification of 31-69%; G: proived a mass modification ≦30%)”.
`C=CC(=O)Nc1ccccc1Nc1nc(N[C@H]2CC[C@H](OC)CC2)ncc1Cl` [Compound I-100]: the GI50 in experiment [1] is above 1000 nM. Besides, the EC50 in experiment [2] (setting [6]) lay in the range of 501 to 999 nM. Moreover, in experiment [3], the “ERK1 Mass Mod (%)” value was “F (provided a mass modification of 31-69%)”.
For `C=CC(=O)N(C)c1ccccc1Nc1nc(N[C@H]2CC[C@H](O)CC2)ncc1Cl` [Compound I-104, N-(2-((5-chloro-2-(trans-(4-hydroxycyclohexyl)amino)pyrimidin-4-yl)amino)phenyl)-N-methylacrylamide] the same measures were 501 to 999 nM, 501 to 999 nM and “E (provided a mass modification of ≧70%)”.
In turn, `C=CC(=O)Nc1ccccc1Nc1nc(Nc2ccc(N3CCN(C(C)=O)CC3)cc2OC)ncc1Cl` [Compound I-149, N-(2-((2-((4-(4-acetylpiperazin-1-yl)-2-methoxyphenyl)amino)-5-chloropyrimidin-4-yl)amino)phenyl)acrylamide] showed a GI50 in experiment [1] of 101 to 500 nM. In addition, the “ERK1 Mass Mod (%)” value in experiment [3] is “E (key: E: provided a mass modification of ≧70%; F: provided a mass modification of 31-69%; G: proived a mass modification ≦30%)”.
Consider `C=CC(=O)Nc1cc(OC)ccc1Nc1nc(Nc2ccc(N3CCN(C(C)=O)CC3)cc2OC)ncc1Cl` [Compound I-152, N-(2-((2-((4-(4-acetylpiperazin-1-yl)-2-methoxyphenyl)amino)-5-chloropyrimidin-4-yl)amino)-5-methoxyphenyl)acrylamide], for which the GI50 in experiment [1] is 501 to 999 nM. Moreover, in experiment [3], the “ERK1 Mass Mod (%)” value is reported as “E (provided a mass modification of ≧70%)”.
On to `C=CC(=O)Nc1ccccc1Nc1nc(Nc2cc(C(=O)NOCCO)ccc2C)ncc1Cl` [Compound I-198, 3-((4-((2-acrylamidophenyl)amino)-5-chloropyrimidin-2-yl)amino)-N-(2-hydroxyethoxy)-4-methylbenzamide], for which, in experiment [1], the GI50 lay in the range of 101 to 500 nM. The “ERK1 Mass Mod (%)” value in experiment [3] is recorded as “E (provided a mass modification of ≧70%)”.
In the case of `C=CC(=O)Nc1ccccc1Nc1nc(Nc2cc(N[C@H]3CC[C@@H](O)CC3)nc(OC)c2)ncc1C(F)(F)F` [Compound I-292], the GI50 in experiment [1] was below 100 nM. The EC50 in experiment [2] (setting [6]) was below 100 nM. Moreover, in experiment [3], the “ERK1 Mass Mod (%)” value was “E (provided a mass modification of ≧70%)”.
Compound `C=CC(=O)Nc1cc(C)ccc1Nc1nc(Nc2cc(N[C@H]3CC[C@@H](O)CC3)nc(OC)c2)ncc1C(F)(F)F` [Compound I-326, N-(2-((2-((2-((cis-4-hydroxycyclohexyl)amino)-6-methoxypyridin-4-yl)amino)-5-(trifluoromethyl)pyrimidin-4-yl)amino)-5-methylphenyl)acrylamide] returned a GI50 in experiment [1] below 100 nM. Further, the EC50 in experiment [2] (setting [6]) is below 100 nM. Also, the “ERK1 Mass Mod (%)” value in experiment [3] is listed as “E (provided a mass modification of ≧70%)”.
The compound `C=CC(=O)Nc1cc(C)ccc1Nc1nc(Nc2cc(NC3CCC(C)(O)CC3)nc(OC)c2)ncc1C(F)(F)F` (stereo not drawn) [Compound I-327, N-(2-((2-((2-((trans-4-hydroxy-4-methylcyclohexyl)amino)-6-methoxypyridin-4-yl)amino)-5-(trifluoromethyl)pyrimidin-4-yl)amino)-5-methylphenyl)acrylamide] registered a GI50 in experiment [1] below 100 nM. In addition, the EC50 in experiment [2] (setting [5]) was below 100 nM. For the same compound, the “ERK1 Mass Mod (%)” value in experiment [3] is reported as “E (key: E: provided a mass modification of ≧70%; F: provided a mass modification of 31-69%; G: proived a mass modification ≦30%)”.
For `COc1cc(Nc2ncc(C(F)(F)F)c(Nc3ccc(C)cc3N)n2)c(C)cn1` [Compound I-353, N^4-(2-amino-4-methylphenyl)-N^2-(2-methoxy-5-methylpyridin-4-yl)-5-(trifluoromethyl)pyrimidine-2,4-diamine], the EC50 in experiment [2] (setting [6]) was above 1000 nM. In experiment [3], the “ERK1 Mass Mod (%)” value is recorded as “G (proived a mass modification ≦30%)”. The IC50 in experiment [4] is above 1000 nM.
In turn, `C=CC(=O)Nc1cc(C)ccc1Nc1nc(Nc2nc(OC)ncc2C(F)(F)F)ncc1C(F)(F)F` [Compound I-355, N-(2-((2-((2-methoxy-5-(trifluoromethyl)pyrimidin-4-yl)amino)-5-(trifluoromethyl)pyrimidin-4-yl)amino)-5-methylphenyl)acrylamide] had a GI50 in experiment [1] of 101 to 500 nM. In addition, the concentration giving a half-maximal response (EC50) in experiment [2] (setting [6]) is below 100 nM. In experiment [3], the “ERK1 Mass Mod (%)” value is listed as “E (provided a mass modification of ≧70%)”.
Regarding `C=CC(=O)Nc1cc(C)ccc1Nc1nc(Nc2ncc(F)c(OC)n2)ncc1C(F)(F)F` [Compound I-356, N-(2-((2-((5-fluoro-4-methoxypyrimidin-2-yl)amino)-5-(trifluoromethyl)pyrimidin-4-yl)amino)-5-methylphenyl)acrylamide], in experiment [1], the 50% growth inhibitory concentration (GI50) fell in the range of 101 to 500 nM. For the same compound, the “ERK1 Mass Mod (%)” value in experiment [3] is reported as “E (provided a mass modification of ≧70%)”.
